Test results: article PMC7283364 (ACS infectious diseases, 2019)
“And” between values parts separate entries of the source, which are not always exact repeats. Equal entries are not always repeated. Where two headings read alike, the source gives them in different places. Where a SMILES comes first, the peptide text is derived from it. The star is where a group is joined. Cbz = O=C(OCc1ccccc1)*

Key:
[1] = tested on: Schistosoma mansoni infectious larvae (cercariae); details: cercariae pre-treated with 50 μM; cited from earlier work
adult S. mansoni [2] = assay: Microscopic observation of phenotypic changes of adult worms in culture; assay type: cell-based, Schistosoma mansoni; details: 1 μM; for phenotype viewed under the microscope: 72 h; for phenotypic changes: 24 h
[3] = tested on: caspase activity in adult S. mansoni; assay: Caspase activity; assay type: cell-based, Schistosoma mansoni; details: 1 μM, 24 h, Ac-DEVD-AFC
adult S. mansoni [4] = assay: WormAssay quantitative motility assay of adult worms in culture; assay type: cell-based, Schistosoma mansoni; details: 1 μM, mixed-sex adults
[5] = tested on: S. mansoni proteasome β5 subunit; assay: Inhibition of proteasome activity; assay type: biochemical, Schistosoma mansoni; details: 1 μM inhibitor added to lysate, Suc-LLVY-AMC, E-64 present
[6] = tested on: S. mansoni proteasome β5 subunit; assay: Proteasome inhibition in living worms exposed to inhibitors; assay type: cell-based, Schistosoma mansoni; details: worms exposed to 1 μM for 24 h, washed, extracts assayed with Suc-LLVY-AMC
[7] = target: human immunoproteasome (i20S) β2 subunit (Homo sapiens, UniProt P40306); assay: i20S β2 inhibition assay; assay type: biochemical
Sm20S β5 subunit = Sm20S β5 subunit (Schistosoma mansoni, UniProt A0A5K4F079); assay: Sm20S β5 inhibition assay; assay type: biochemical
[8] = target: human immunoproteasome (i20S) β5 subunit (Homo sapiens, UniProt P28062); assay: i20S β5 inhibition assay; assay type: biochemical; details: for fold less potent towards i20S β5: compared with c20S and Sm20S β5
HepG2 cells [9] = tested on: HepG2 cells
HepG2 cells [10] = details: cited from earlier work
Sm20S β2 subunit [11] = target: Sm20S β2 subunit (Schistosoma mansoni, UniProt G4VSW3); assay: Sm20S β2 inhibition assay; assay type: biochemical; details: for IC50: read-out: IC50 Sm20S β2, z-LRR-AMC
Sm20S β1 subunit = Sm20S β1 subunit (Schistosoma mansoni, UniProt G4V926); assay: Sm20S β1 inhibition assay; assay type: biochemical; details: for IC50: read-out: IC50 Sm20S β1, z-LLE-AMC
Sm20S β2 subunit [12] = assay: Sm20S β2 inhibition assay; assay type: biochemical
[13] = target: human immunoproteasome (i20S) β1 subunit (Homo sapiens, UniProt P28065); assay: i20S β1 inhibition assay; assay type: biochemical; details: read-out: IC50 i20S β1

| Compound | phenotype viewed under the microscope (adult S. mansoni [2]) | increase in caspase activity compared to the DMSO control [3] | decrease in worm motility (adult S. mansoni [4]; 24 h) | reduction of proteolytic activity in worm lysate [5] | decrease in endogenous proteasome (β5) activity in living worms [6] | fold less potent towards i20S β5 [8] | decrease in worm motility (adult S. mansoni [4]; 6 h) | IC50 (Sm20S β2 subunit [11]) | IC50 (Sm20S β1 subunit) | phenotypic changes (adult S. mansoni [2]) | also measured |
| --- | --- | --- | --- | --- | --- | --- | --- | --- | --- | --- | --- |
| CC(C)C[C@@H](C=O)NC(=O)[C@H](CC(C)C)NC(=O)[C@H](CC(C)C)NC(=O)OCc1ccccc1 [MG132] (Cbz-Leu-Leu-Leu-aldehyde) | appeared normal in shape, movement and color | not significantly different from the DMSO control | did not alter motility | 92% | no effect on proteasome activity |  |  |  |  |  | reduction in parasite establishment compared to control-treated mice [1]: 96% |
| CCCCCC(=O)N[C@H](C(=O)N[C@@H](CCCC)C(=O)N[C@@H](CC(C)C)C(=O)[C@@]1(C)CO1)C(C)C [analog 1] |  |  |  |  |  | at least 5 fold |  |  |  |  | fold less potent towards i20S β2 ([7]; compared with c20S and Sm20S β2): at least 5 fold; difference in potency between c20S and Sm20S (Sm20S β5 subunit; all subunits): no difference in potency; fold less cytotoxic to HepG2 cells than carmaphycin B (HepG2 cells [9]): 11 fold; EC50 (HepG2 cells [10]): 134 nM |
| CC(C)C[C@H](NC(=O)[C@H](CCc1ccccc1)NC(=O)CN1CCOCC1)C(=O)N[C@@H](Cc1ccccc1)C(=O)N[C@@H](CC(C)C)C(=O)[C@@]1(C)CO1 [carfilzomib] | phenotypic changes were similar to those observed for bortezomib | 4.5 fold |  | 100% | 84% and > 75% |  | 47% | 48 nM | > 500 nM |  | fold more potent against Sm20S β5 compared to bortezomib (Sm20S β5 subunit): 18 fold; selectivity for Sm20S β5 subunit over β1 (Sm20S β5 subunit): ~1000 fold; selectivity for Sm20S β5 subunit over β2 (Sm20S β5 subunit): approximately 100 fold; fold more potent against Sm20S β2 compared to bortezomib (Sm20S β2 subunit [11]): 5.6 fold; fold less potent against Sm20S β1 compared to bortezomib (Sm20S β1 subunit): more than 33 fold |
| CCCCCC(=O)N[C@@H](Cc1ccccc1)C(=O)N[C@@H](CCCC)C(=O)N[C@@H](Cc1ccccc1)C(=O)[C@@]1(C)CO1 [analog 7] |  |  |  |  |  | at least 5 fold |  |  |  |  | fold more potent for Sm20S β2 relative to c20S (Sm20S β2 subunit [12]): 3.3 fold |
| CCCCCC(=O)N[C@H](C(=O)N[C@@H](CCS(C)(=O)=O)C(=O)N[C@@H](CC(C)C)C(=O)[C@@]1(C)CO1)C(C)C [carmaphycin B] |  |  | at least 80% |  | at least 80% |  |  | 0.6 nM | > 500 nM | same deleterious phenotypic changes previously noted for bortezomib | IC50 ([7]; read-out: IC50 i20S β2): 62 nM; IC50 (Sm20S β5 subunit; read-out: IC50 Sm20S β5, Suc-LLVY-AMC): 9.8 nM; IC50 ([8]; read-out: IC50 i20S β5): < 5 nM; IC50 [13]: > 500 nM |
| CC(C)C[C@H](NC(=O)[C@H](Cc1ccccc1)NC(=O)c1cnccn1)B(O)O [bortezomib] | relatively motionless, unable to extend or flex their bodies and darkened, and had detached from the surface of the well | 7 fold |  | 99% |  |  | 45% | 272 nM | 15 nM | same deleterious phenotypic changes previously noted for bortezomib | IC50 (Sm20S β5 subunit): 9 nM; potency for Sm20S β1 compared with β5 (Sm20S β5 subunit): equal potency |
